Consider 11 compounds from PubChem BioAssay (NCI).

SMILES strings stand for the structures. Several values for one entry are separate records, joined by “and”; a condition that tells them apart may be missing. Equal entries are not always repeated.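 Growth conditions: 96-well plates. Treatment: test compound, 48 hours, 5 concentrations. Analysis: linear interpolation between bracketing concentrations; unreached endpoints set to highest concentration. GI50: concentration for 50% inhibition of growth. TGI is the concentration that stops growth completely.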

Holding throughout (assay): inhibition of tumour cell growth, NCI panel, 48 h
Assay [1] has as its system DU-145 prostate.
The test system of assay [2] is K-562 leukemia.
Assay [3] relates to HT29 colon.
Assay [4] deals with A549 NSCLC.
Assay [5] concerns OVCAR-3 ovarian.
Assay [6] deals with HL-60(TB) leukemia.
Assay [7] concerns OVCAR-4 ovarian.
Assay [8] relates to A498 renal.
For assay [9], the system named is CAKI-1 renal.
Assay [10] concerns SN12C renal.

As to `CC1(C)N=C(N)N=C(N)N1c1cccc(CCCCc2ccc(S(=O)(=O)F)cc2Cl)c1`, the GI50 in [1] was 4.06 µM; in [2], 3.42 µM; in [3], 0.788 µM; in assay [4], 1.42 µM; in assay [5], 5.37 µM; in assay [6], 7.02 µM. In addition, the GI50 in [7] was 13.9 µM; in assay [8], more than 48.2 µM; in [9] it was 9.21 µM; in assay [10], 0.834 µM. The TGI is more than 59.8 µM in [1]; more than 100 µM in assay [2]; more than 100 µM in [3]; more than 100 µM in assay [4]; 34.1 µM in assay [5]; 55.8 µM in assay [6]. Besides, the TGI was more than 100 µM in [7], more than 100 µM in assay [8], more than 100 µM in assay [9] and 22.5 µM in [10].
Regarding `Cc1nc(Nc2ccc(F)c(Cl)c2)sc1C(=O)O`, the GI50 in assay [1] was 2.22 µM; in assay [2], 2.65 µM; in [3] it was 1.67 µM; in assay [4], 1.68 µM; in assay [5] it was 1.82 µM; in assay [6] it was 3.41 µM. Moreover, the GI50 is 1.74 µM in assay [7], 1.64 µM in [8], 1.9 µM in assay [9] and 1.53 µM in assay [10]. Moreover, the TGI in assay [1] was 7.84 µM; in assay [2] it was more than 100 µM; in assay [3], 3.44 µM; in assay [4], 3.81 µM; in assay [5], 4.47 µM; in assay [6], 8.17 µM. Also, the TGI in assay [7] came out at 9.12 µM; in assay [8], 4.16 µM; in [9], 7.34 µM; in assay [10], 3.56 µM.
As for `CCN(CC)CCCC(C)Nc1cnc(C(=O)Nc2cc(F)cc3cccnc23)cn1` (stereo not drawn), the GI50 in assay [1] is 10.5 µM and 1.48 µM; in assay [2], 1.95 µM and 0.46 µM; in assay [3] it was 2.96 µM and 0.668 µM; in [4], 8.14 µM and 2.41 µM; in assay [5] it was 2.14 µM and 0.349 µM; in assay [7], 2.24 µM and 0.35 µM. In addition, the GI50 in assay [8] was 2.72 µM and 1.6 µM; in assay [9], 2.89 µM and 2.05 µM; in [10] it was 6.4 µM and 1.23 µM. Moreover, the TGI in assay [1] was 23.1 µM and 2.84 µM; in [2], 4.97 µM and > 32.5 µM; in assay [3], 10.8 µM and 4.76 µM; in assay [4], 22.3 µM and 6.28 µM; in assay [5] it was 6.79 µM and 1.23 µM; in assay [6], 25.6 µM and 31.3 µM. Further, the TGI in assay [8] was 14.5 µM and 3.24 µM; in assay [9], 15.4 µM and 5.71 µM; in [10], 19.3 µM and 2.54 µM.
`CCc1ccc(CCC(=O)Nc2ncc(Cc3ccccc3)s2)o1`: the GI50 was 4.51 µM in assay [1]; 0.529 µM in [2]; 1.02 µM in assay [3]; 4.47 µM in assay [4]; 2.67 µM in assay [5]; 1.53 µM in assay [6]. For the same compound, the GI50 in assay [7] is 27.8 µM; in [8], 1.29 µM; in assay [9] it was 2.94 µM; in assay [10], 4.42 µM. In addition, the TGI in assay [1] is more than 100 µM; in assay [2], more than 100 µM; in assay [3] it was more than 100 µM; in assay [4], more than 100 µM; in assay [5], 21.6 µM; in assay [6] it was 4.38 µM. For the same compound, the TGI is more than 100 µM in assay [7], 8.87 µM in assay [8], more than 100 µM in [9] and more than 100 µM in [10].
Regarding `CN1CCN(Cc2ccc(NC(=O)c3[nH]ncc3Nc3ncnc4c3CCC4)cc2)CC1`, the GI50 in [1] is 1.64 µM; in assay [2], 0.648 µM; in assay [3], 2.17 µM; in [4] it was 2.18 µM; in assay [5], 1.09 µM; in [6], 0.728 µM. The GI50 in [7] was 1.49 µM; in assay [8], 1.6 µM; in assay [9], 2.73 µM; in assay [10], 1.01 µM. The TGI is 10.7 µM in [1]; 12.1 µM in assay [2]; 8.79 µM in assay [3]; 12.8 µM in assay [4]; 4.6 µM in assay [5]; 3.29 µM in assay [6]. Also, the TGI in assay [7] was 6.67 µM; in [8], 4.45 µM; in assay [9] it was 11.1 µM; in assay [10], 20.2 µM.
Turning to `Nc1ncc(-c2ccc(C(F)(F)F)cc2)c(NC2CCCCCC2)n1`, the GI50 is 39.9 µM in [1]; 21 µM in assay [2]; 40.6 µM in assay [3]; 16.5 µM in assay [4]; 35.9 µM in [5]; 21.4 µM in [6]. The GI50 was 16.7 µM in assay [7], 13.4 µM in assay [8], 20.9 µM in [9] and 29.4 µM in assay [10]. Also, the TGI in assay [1] was more than 100 µM; in [2], more than 100 µM; in assay [3], more than 100 µM; in assay [4], more than 100 µM; in [5], more than 100 µM; in [6], 63.6 µM. The TGI in assay [7] was more than 100 µM; in assay [8], 79.3 µM; in assay [9], more than 100 µM; in assay [10] it was more than 100 µM.
`Cc1ccc(NS(=O)(=O)c2cc(C)ccc2C)cc1`: the GI50 in [1] is 6.17 µM; in [2] it was 0.761 µM; in assay [3], 2.84 µM; in [4], 4.78 µM; in [5] it was 2.53 µM; in [6] it was 3.65 µM. Further, the GI50 was 20.9 µM in assay [7], 2.54 µM in assay [8], 3.25 µM in assay [9] and 5.89 µM in [10]. The TGI came to 28.1 µM in assay [1]; 29.4 µM in assay [2]; 12.3 µM in assay [3]; 38 µM in assay [4]; 7.12 µM in assay [5]; 27 µM in assay [6]. Moreover, the TGI was more than 100 µM in assay [7], 15.4 µM in assay [8], 29.2 µM in [9] and 19.9 µM in assay [10].
For `COc1ccc(C(=O)c2cc(OC)c(OC)c(OC)c2)cc1O`, the GI50 in assay [1] is 0.0387 µM; in assay [2], less than 0.01 µM; in [3], 1.96 µM; in assay [4], 0.0717 µM; in [5], 0.0207 µM; in assay [6] it was 0.0103 µM. Besides, the GI50 in assay [7] is 0.61 µM; in [8], 1.4 µM; in assay [9], 0.363 µM; in assay [10], 0.0668 µM. Also, the TGI was more than 100 µM in assay [1]; more than 100 µM in assay [2]; more than 49.5 µM in assay [3]; more than 100 µM in assay [4]; 0.0511 µM in [5]; 0.0557 µM in assay [6]. Besides, the TGI is more than 100 µM in assay [7], 5.7 µM in [8], more than 100 µM in assay [9] and more than 100 µM in assay [10].
With `CC(=O)Oc1cccc2c1C(=O)C(Br)(Br)CCC2`, the TGI in assay [1] worked out at 26.6 µM; in [2] it was 20.8 µM; in [3] it was 14 µM; in assay [4], 40 µM; in assay [5], 13.3 µM; in assay [6], 6.51 µM. In addition, the TGI in assay [7] was found to be 3.67 µM; in assay [8] it was 33.4 µM; in assay [9] it was 10.7 µM; in assay [10], 19.7 µM.
For `COc1ccc(C2=C(c3cn(C)c4ccccc34)C(=O)NC2=O)cc1OC`, the GI50 in assay [1] was more than 19.4 µM; in assay [2] it was 4.92 µM; in assay [3], 6.78 µM; in [4] it was 8.44 µM; in assay [5] it was 7.57 µM; in assay [6], 6.27 µM. The GI50 in [7] was 10.6 µM; in assay [8], 3.43 µM; in assay [9], 5.78 µM; in assay [10] it was 8.91 µM. The TGI in assay [1] is more than 25 µM; in assay [2] it was more than 25 µM; in [3] it was more than 25 µM; in assay [4], more than 25 µM; in [5], more than 25 µM; in assay [6], 17.2 µM. In addition, the TGI in assay [7] is more than 25 µM; in assay [8], 8.95 µM; in assay [9], more than 25 µM; in [10], more than 25 µM.
In the case of `O=c1[nH]nc2c3c(cccc13)NC(CN1Cc3ccccc3C1)=N2`, the GI50 is 5 µM in assay [1]; 8.19 µM in assay [2]; 3.45 µM in assay [3]; 5.69 µM in assay [4]; 5.64 µM in assay [5]; 9.13 µM in [6]. For the same compound, the GI50 in assay [7] is 5.77 µM; in assay [8] it was 4.7 µM; in [9], 4.92 µM; in assay [10], 6.75 µM. For the same compound, the TGI in assay [1], in [2], in assay [3], in assay [4], in [5] and in assay [6] was more than 100 µM each time. The TGI in assay [7], in [8], in [9] and in assay [10] was more than 100 µM throughout.
